Like-named read-outs stand apart in the source and are kept apart here.
Legend:
Type in all cases: cell-based
[1] = tested on: GT1a replicon encoding NS5A mutation Y93H; experiment: Transient replication assay, GT1a replicon with NS5A mutation Y93H; details: Hepatitis C virus
[2] = tested on: HCV GT 1a replicon; experiment: HCV replicon assay, stable GT 1a replicon (Renilla luciferase); details: Hepatitis C virus, GT1A
Experimental: (§1) The activity of compounds was determined against HCV replicons representing genotypes (GT) 1a, 1b, 2a, and 3a. To generate stable Huh-7.5-based cell lines, HCV replicons were engineered to express the Renilla luciferase reporter (hRluc) fused to the neomycin phosphotransferase (Neo) gene. GT2a and GT3a HCV replicons were based on the JFH-1 subgenomic replicon (Kato et al. 2003 Gastroenterology, 125:1808-1817), in which the NS5A gene was replaced with that of strains J6 and S52 (GT2a and G3a, respectively). The activity of compounds against GT1a replicons encoding NS5A mutations (M28T, Q30R, L31M, Y93C, and Y93H) was also determined in a transient replication assay. The parental GT1a and GT2a replicons (pH/SG-Neo(L+I) and pSG-Neo-JFH1, respectively) were licensed from Apath LLC (Saint Louis, Mo.). The parental GT 1b replicon (pFKi389lucubineo_3_3′_ET) was licensed from ReBLikon GmbH (Germany). HCV replicons were constructed by standard molecular biology techniques described below. All replicon constructs were verified by restriction enzyme digestion and DNA sequencing.
pH/SG-Neo(L+I) was modified to add the firefly luciferase reporter gene and additional adaptive mutations by replacing the pH/SG-Neo(L+I) NS3-NS5A coding region with the corresponding sequence of pH77-S, creating pH/SG-lucubineo-H77S as described (Borawski J et al. 2009, J Virol 83: 10058-10074). Subsequently, the firefly luciferase-Neo cassette was replaced with the hRluc-Neo cassette. To create a unique cloning site, the NotI restriction site in NS5B was removed using QuickChange II XL Site-Directed Mutagenesis Kit (Agilent) and the following primers: NotI KO Fwd 5′-CTCAAACTCACTCCAATAGCTGCCGCTGGCCGGCTGGAC-3′(G→T mutation removing NotI site underlined) (SEQ. ID No. 1) and NotI KO Rev 5′-GTCCAGCGGGCCAGCGGCAGCTATTGGAGTGAGTTTGAG-3′(C→A mutation removing NotI site underlined) (SEQ. ID No. 2). The resulting vector, pH/SG-lucubineo-H775-NotIKO, was sequenced to confirm the NS5B gene. The hRluc-Neo cassette was PCR amplified from pF9 cytomegalovirus (CMV) hRluc-Neo Flexi(R) (Promega) using Accuprime Super Mix II (Invitrogen) and the following primers, which introduce restriction sites: […]
The amplification product was subcloned into pCR2.1-TOPO (Invitrogen). The resulting plasmid was digested with AscI and NotI, and the excised hRluc-Neo fragment was ligated using the Promega Rapid Ligation Kit (Promega) into pH/SG-lucubineo-H775-NotIKO digested with the same enzymes.
Stable HCV replicon cell lines were grown in complete media (Dulbecco's modified Eagle medium [DMEM], 2 mM L-glutamine, 0.1 mM essential amino acids, 1 mM sodium pyruvate, 10% heat inactivated fetal bovine serum) with the addition 500 μg/ml […] (G418). Huh7-lunet cells were maintained in the same medium without the addition of G418. Cells were routinely passaged at a dilution of 1:4 two times a week. The assay medium for both luciferase reporter HCV replicon and cytotoxicity assays used phenol red-free DMEM and lacked G418. For each stable replicon assay, a sixteen point half-log dilution series of compound was stamped (0.5 ul compound per well) into three replica 384-well plates, to which cells were added directly (4000 cells/well). For the transient replication assay, Huh7-lunet cells in ice-cold phosphate buffered saline (PBS) were electroporated (BioRad electroporator; 950 uF, 270V) with 10 ug purified in vitro transcribed HCV replicon RNA, followed by resuspension in complete media and plating (8000 cells/well) into compound stamped 384-well plates. Luciferase activity of compound-treated cells was measured relative to DMSO-treated cells after 72 h incubation using RENILLA-GLO™ Luciferase Assay (Promega). Cytotoxicity (CC50) in the GT1b replicon cell line was analyzed using CELL TITER-GLO™ (Promega). […]

[3] = tested on: GT1a replicon encoding NS5A mutation L31V; experiment: Transient replication assay, GT1a replicon with NS5A mutation L31V; details: Hepatitis C virus
[4] = tested on: GT1a replicon encoding NS5A mutation Y93C; experiment: Transient replication assay, GT1a replicon with NS5A mutation Y93C; details: Hepatitis C virus
[5] = tested on: GT1a replicon encoding NS5A mutation M28T; experiment: Transient replication assay, GT1a replicon with NS5A mutation M28T; details: Hepatitis C virus
[6] = tested on: GT1a replicon encoding NS5A mutation Q30R; experiment: Transient replication assay, GT1a replicon with NS5A mutation Q30R; details: Hepatitis C virus
[7] = tested on: HCV GT 3a replicon; experiment: HCV replicon assay, GT2a chimeric replicon expressing NS5A from GT3a strain S52; details: Hepatitis C virus, read-out: EC50 (nM) 3a
Experimental: as §1
(§2) The plasmid pSG-hRlucNeo-JFH1 was generated from pSG-Neo-JFH1 (Kato et al. 2003, Gastroentrology 125:1808-1817). A fragment containing the JFH-1 5′ NTR—hRluc-Neo gene and two unique restriction sites (AgeI and PmeI) was synthesized (Integrated DNA Technologies, Coralville, Iowa). The resulting synthetic plasmid was digested with AgeI and PmeI and the excised fragment (5′NTR-hRluc-Neo) was ligated into pSG-Neo-JFH1 digested with the same enzymes to generate pSG-hRlucNeo-JFH1. To allow expression of heterologous NS5A sequences, an NS5A shuttle vector was generated from pSG-Neo-JFH1, in which the entire coding sequence of NS5A plus the first eight codons of NS5B were replaced with an AfeI restriction site. This was done by Infusion cloning (Clontech, Mountain View, Calif.) from two PCR products that were generated using pSG-Neo-JFH1 as a template and the following primer pairs:
(§3) Underlined sequences denote regions of overlap necessary for Infusion cloning. Purified PCR products were cloned directly into an NsiI/SnaBI digested pSG-Neo-JFH1 following the manufacturer's instructions to generate pSG-Neo-JFH1-5Ashuttle. The 2023 base pair AgeI/PmeI fragment from pSG-hRlucNeo-JFH1 was then ligated into pSG-Neo-JFH1-5Ashuttle to generate pSG-hRlucNeo-JFH1-5Ashuttle. To generate the 2a-2a-(J6) and 2a-3a-(S52) NS5A chimeric replicons, the full length NS5A sequences from GT2a strain J6 (accession AF177036) and GT3a strain S52 (accession GU814263), with the addition of the first eight codons of JFH-1 NS5B (5′-TCCATGTCATACTCCTGGACCGGG-3′), were synthesized by GeneArt (Life Technologies, Carlsbad Calif.). J6 and S52 NS5A sequences were then PCR amplified from the synthetic clones using the appropriate forward primer:
(§4) Underlined sequences denote regions of overlap with pSG-hRlucNeo-JFH1-5Ashuttle necessary for Infusion cloning. Purified PCR products were directly cloned into AfeI-digested shuttle vector by Infusion cloning following the manufacturer's instructions.
(§5) Stable HCV replicon cell lines were grown in complete media (Dulbecco's modified Eagle medium [DMEM], 2 mM L-glutamine, 0.1 mM essential amino acids, 1 mM sodium pyruvate, 10% heat inactivated fetal bovine serum) with the addition 500 μg/ml […] (G418). Huh7-lunet cells were maintained in the same medium without the addition of G418. Cells were routinely passaged at a dilution of 1:4 two times a week. The assay medium for both luciferase reporter HCV replicon and cytotoxicity assays used phenol red-free DMEM and lacked G418. For each stable replicon assay, a sixteen point half-log dilution series of compound was stamped (0.5 ul compound per well) into three replica 384-well plates, to which cells were added directly (4000 cells/well). […]

[8] = tested on: HCV GT 2a-J6 replicon; experiment: HCV replicon assay, GT2a chimeric replicon expressing NS5A from GT2a strain J6; details: Hepatitis C virus, read-out: EC50 (nM) 2a-J6
Experimental: as §1, §2, §3, §4, §5

[9] = read-out: 1a EC50 (nM) 1a (H77S)
[10] = comparative table, GT 1a, read-out: EC50 (nM) 1a

SMILES | EC50 ([1]; read-out: 1a EC50 (nM) Y93H) [nM] | EC50 [2, 9] [nM] | EC50 ([3]; read-out: 1a EC50 (nM) L31V) [nM] | EC50 ([4]; read-out: 1a EC50 (nM) Y93C) [nM] | EC50 ([5]; read-out: 1a EC50 (nM) M28T) [nM] | EC50 ([6]; read-out: 1a EC50 (nM) Q30R) [nM] | EC50 ([1]; read-out: EC50 (nM) 1a Y93H) [nM] | EC50 [7] [nM] | EC50 [2, 10] [nM] | EC50 ([3]; read-out: EC50 (nM) 1a L31V) [nM] | EC50 [8] [nM] | EC50 ([4]; read-out: EC50 (nM) 1a Y93C) [nM] | EC50 ([5]; read-out: EC50 (nM) 1a M28T) [nM] | EC50 ([6]; read-out: EC50 (nM) 1a Q30R) [nM]
COC(=O)N[C@H](C(=O)N1C[C@@]2(CCOC2)C[C@H]1c1ncc(-c2ccc(-c3ccc4c(ccc5nc([C@@H]6CCCN6C(=O)[C@@H](NC(=O)OC)C(C)C)[nH]c54)c3)cc2)[nH]1)C(C)C [drawing 230] | 7 | 0.01 | 1 | 0.4 | 0.5 | 0.4 |  |  |  |  |  |  |  | 
COC(=O)N[C@H](C(=O)N1CC2(CCOCC2)C[C@H]1c1ncc(-c2ccc(-c3ccc4c(ccc5nc([C@@H]6CCCN6C(=O)[C@@H](NC(=O)OC)C(C)C)[nH]c54)c3)cc2)[nH]1)C(C)C [drawing 234] |  |  |  |  |  |  | 26 | 0.7 | 0.03 | 6 | 32 | 1 | 0.9 | 1
COC(=O)N[C@H](C(=O)N1C[C@]2(CCCCO2)C[C@H]1c1ncc(-c2ccc(-c3ccc4c(ccc5nc([C@@H]6CCCN6C(=O)[C@@H](NC(=O)OC)C(C)C)[nH]c54)c3)cc2)[nH]1)C(C)C |  |  |  |  |  |  | 9 | 1 | 0.01 | 0.3 | 27 | 0.2 | 0.01 | 0.03
COC(=O)N[C@H](C(=O)N1C[C@@]2(CCCOC2)C[C@H]1c1ncc(-c2ccc(-c3ccc4c(ccc5nc([C@@H]6CCCN6C(=O)[C@@H](NC(=O)OC)C(C)C)[nH]c54)c3)cc2)[nH]1)C(C)C [drawing 235] |  |  |  |  |  |  | 1 | 297 | 0.01 | 0.1 | 50 | 0.02 | 0.03 | 0.06
COC(=O)N[C@H](C(=O)N1C[C@@]2(CCCO2)C[C@H]1c1ncc(-c2ccc(-c3ccc4c(ccc5nc([C@@H]6CCCN6C(=O)[C@@H](NC(=O)OC)C(C)C)[nH]c54)c3)cc2)[nH]1)C(C)C [drawing 231] | 5 | 0.06 | 46 | 0.2 | 14 | 3 |  |  |  |  |  |  |  | 
COC(=O)N[C@H](C(=O)N1C[C@@]2(CCCCO2)C[C@H]1c1ncc(-c2ccc(-c3ccc4c(ccc5nc([C@@H]6CCCN6C(=O)[C@@H](NC(=O)OC)C(C)C)[nH]c54)c3)cc2)[nH]1)C(C)C |  |  |  |  |  |  | 6 | 156 | 0.15 | 44 | 267 | 0.7 | 6 | 5
COC(=O)N[C@H](C(=O)N1C[C@]2(CCCO2)C[C@H]1c1ncc(-c2ccc(-c3ccc4c(ccc5nc([C@@H]6CCCN6C(=O)[C@@H](NC(=O)OC)C(C)C)[nH]c54)c3)cc2)[nH]1)C(C)C [drawing 228] | 15 | 0.02 | 0.4 | 0.2 | 0.3 | 0.05 |  |  |  |  |  |  |  | 
COC(=O)N[C@H](C(=O)N1C[C@]2(CCOC2)C[C@H]1c1ncc(-c2ccc(-c3ccc4c(ccc5nc([C@@H]6CCCN6C(=O)[C@@H](NC(=O)OC)C(C)C)[nH]c54)c3)cc2)[nH]1)C(C)C [drawing 229] | 42 | 0.02 | 11 | 0.8 | 3 | 0.8 |  |  |  |  |  |  |  | 

— patent US10407445B2, “Hepatitis C virus inhibitors” (ENANTA PHARMACEUTICALS, INC., priority 2013, dated 2019)
